Reference: patent US20260001875A1, “AMINOPYRIMIDINYL DERIVATIVES FOR THE TREATMENT OF PARKINSON'S DISEASE” (UNIVERSITY OF DUNDEE, priority 2022, published 2026)

Tests used:
[1] = system: Rab10 pThr73; test: Rab10 Thr73 dephosphorylation (immunoblot) in LRRK2^G2019S MEFs; format: cell-based, mouse; settings: Mus musculus, read-out: pRab10 inhibited in LRRK2^G2019S MEFs
[2] = system: Rab10 pThr73; test: Rab10 Thr73 dephosphorylation (immunoblot) in WT MEFs; format: cell-based, mouse; settings: Mus musculus, read-out: pRab10 inhibited in WT MEFs
Experimental: (§1) Western blot degradation assays for the LRRK2 protacs were performed with WT and PD-associated LRRK2 [G2019S] mouse embryonic fibroblasts (MEFs). The second-generation PROTACs were tested in parallel with the first generation PROTACs SD75, SD82, and SD100. The compounds were tested at 33 nM or […] concentrations for 4 hours or 24 hours, running two biological replicates per condition and achieving quantifications representative of both replicates. Analysis by quantitative immunoblotting was performed with readouts of the total LRRK2 (antibody recognizes epitope in C-terminus of protein), Rab10 pThr73 (physiological substrate) and LRRK2 pSer935 (biomarker phosphorylation site).
(§2) Primary MEFs were generated as described in a previous study (Wiggin et al., Mol. Cell Biol. 2002 April; 22(8):2871-81.). Briefly, the uterine horn was collected from adult female mice at day E12.5 and transferred to a 10 cm tissue culture dish containing cold PBS. Two forceps were used to tear the yolk sacs to isolate each embryo. Forceps were cleaned thoroughly with 70% ethanol between each embryo isolation. The embryos were culled, and a tissue piece was collected in a PCR tube for genotyping. The red tissue of the embryo, which grows to become the heart and liver, was removed. The remainder of the embryo was minced with a scalpel blade and incubated with 7.5 ml trypsin-EDTA solution for 10 minutes in a 37° C. tissue culture CO2 incubator. The dish was removed from the incubator and checked under a light microscope for single cells. 7.5 ml complete media was added to the trypsinised cells, and the cell suspension was transferred to a 15 ml Falcon tube, centrifuged at 1200 rpm for 5 minutes at room temperature. The trypsin was aspirated, the cell pellet was resuspended in 5 ml fresh complete media, and the cell suspension was plated in a 60 mm tissue culture dish and incubated in a 37° C., 5% CO2 tissue culture incubator. The MEFs at this stage were considered as passage 0 and were passaged and expanded for experimental use once the genotype was confirmed by allelic sequencing and immunoblotting. MEFs were cultured in Dulbecco's modified Eagle medium (DMEM) containing 10% (v/v) fetal bovine serum (FBS), 2 mM L-glutamine, 100 U/ml penicillin, and 100 μg/ml streptomycin supplemented with 1× non-essential amino acids and 1 mM sodium pyruvate.
Culturing and passaging of adherent cell lines were carried out using aseptic technique in CL1 or CL2 (for PBMC isolation) biological safety cabinets. All cells were incubated in a 37° C. incubator with 5% CO2. Cell lines were regularly tested for mycoplasma contamination. For western blot assay, the cells were seeded in 6-well plates. After treating with testing compounds at indicated concentrations and time period, the media was removed and the cells were washed with PBS and lysed in 100 μl ice-cold complete lysis buffer containing 50 mM Tris-HCl pH 7.4, 1 mM EGTA, 10 mM 2-glycerophosphate, 50 mM sodium fluoride, 5 mM sodium pyrophosphate, 270 mM sucrose, supplemented with 1 μg/ml microcystin-LR, 1 mM sodium orthovanadate, complete EDTA-free protease inhibitor cocktail (Roche) and 1% (v/v) Triton X-100. The cells were immediately placed on ice and were scraped and collected into 1.5 ml Eppendorf tubes. Cell lysates were incubated on ice for 10 minutes prior to centrifugation at 15,000 g at 4° C. for 15 minutes. The cell pellet was discarded, and supernatant was collected for analysis by quantitative immunoblotting. For long term storage, the supernatant was flash frozen and stored at −80° C. Protein concentrations of cell lysates were determined using the Bradford assay.
Cell lysates containing a quarter of a volume of 4× NuPAGE LDS sample buffer (NP0007) supplemented with 5% β-mercaptoethanol, were heated at 95° C. for 5 minutes. […]

[3] = system: Rab10 pThr73; test: Rab10 Thr73 dephosphorylation (immunoblot) in LRRK2^G2019S MEFs; format: cell-based; settings: Mus musculus, read-out: pRab10 inhibited in LRRK2^G2019S MEFs
Experimental: as §1, with “The” for “Western blot degradation assays for the LRRK2 protacs were performed with WT and PD-associated LRRK2 [G2019S] mouse embryonic fibroblasts (MEFs). The”
as §2
Culturing and passaging of adherent cell lines were carried out using aseptic technique in CL1 or CL2 (for PBMC isolation) biological safety cabinets. All cells were incubated in a 37° C. incubator with 5% CO2. Cell lines were regularly tested for mycoplasma contamination. For western blot assay, the cells were seeded in 6-well plates. […] The cells were immediately placed on ice and were scraped and collected into 1.5 ml Eppendorf tubes. Cell lysates were incubated on ice for 10 minutes prior to centrifugation at 15,000 g at 4° C. for 15 minutes. The cell pellet was discarded, and supernatant was collected for analysis by quantitative immunoblotting. For long term storage, the supernatant was flash frozen and stored at −80° C. Protein concentrations of cell lysates were determined using the Bradford assay.
Cell lysates containing a quarter of a volume of 4× NuPAGE LDS sample buffer (NP0007) supplemented with 5% β-mercaptoethanol, were heated at 95° C. for 5 minutes. 15 to 20 μg of samples were loaded onto pre-cast 4-12% Bis-Tris midi 20W or 26W gels (Thermofisher Scientific®, Cat #WG1402BOX or WG1403BOX) and resolved at 130 V for 2 hours with NuPAGE MOPS SDS running buffer (Thermofisher Scientific® Cat #NP0001-02). Proteins were electrophoretically transferred onto a 0.45 μm nitrocellulose membrane (GE Healthcare, Amersham Protran® Supported 0.45 mm NC) at 90 V for 90 min on ice in transfer buffer (48 mM Tris base and 39 mM glycine supplemented with 20% methanol). The transferred membrane was blocked with 5% (w/v) skim milk powder dissolved in tris-buffered saline with tween (TBS-T) (50 mM Tris base, 150 mM sodium chloride (NaCl), 0.1% (v/v) Tween-20) at room temperature for 1 hour.

Compound | inhibition at 1 µM ([1]; 1 μM/4 h treatment) [%] | inhibition at 1 µM ([1]; 1 μM/24 h treatment) [%] | inhibition at 0.033 µM ([2]; 33 nM/4 h treatment) [%] | inhibition at 0.033 µM ([2]; 33 nM/24 h treatment) [%] | inhibition at 1 µM ([2]; 1 μM/4 h treatment) [%] | inhibition at 1 µM ([2]; 1 μM/24 h treatment) [%] | inhibition at 0.033 µM ([3]; 33 nM/4 h treatment) [%] | inhibition at 0.033 µM ([3]; 33 nM/24 h treatment) [%]
CNc1nc(Nc2ccc(C(=O)N3CCN(Cc4cccc(CSC(C)(C)[C@H](NC(=O)C5(F)CC5)C(=O)N5C[C@H](O)C[C@H]5C(=O)NCc5ccc(-c6scnc6C)cc5)c4)CC3)cc2OC)ncc1Cl [XL01111, (2S,4R)-1-((R)-3-((3-((4-(4-((5-chloro-4-(methylamino)pyrimidin-2-yl)amino)-3-methoxybenzoyl)piperazin-1-yl)methyl)benzyl)thio)-2-(1-fluorocyclopropane-1-carboxamido)-3-methylbutanoyl)-4-hydroxy-N-(4-(4-methylthiazol-5-yl)benzyl)pyrrolidine-2-carboxamide] | 20 to 100 | 10 to 100 | 0 to 40 | 0 to 60 | 10 to 95 | 30 to 100 | 0 to 70 | 0 to 90
CNc1nc(Nc2ccc(C(=O)N3CCN(CCCSC(C)(C)[C@H](NC(=O)C4(F)CC4)C(=O)N4C[C@H](O)C[C@H]4C(=O)N[C@@H](C)c4ccc(-c5scnc5C)cc4)CC3)cc2OC)ncc1Cl [XL01118, (2S,4R)-1-((R)-3-((3-(4-(4-((5-chloro-4-(methylamino)pyrimidin-2-yl)amino)-3-methoxybenzoyl)piperazin-1-yl)propyl)thio)-2-(1-fluorocyclopropane-1-carboxamido)-3-methylbutanoyl)-4-hydroxy-N—((S)-1-(4-(4-methylthiazol-5-yl)phenyl)ethyl)pyrrolidine-2-carboxamide] | 20 to 100 | 10 to 100 | 0 to 40 | 0 to 60 | 10 to 95 | 30 to 100 | 0 to 70 | 0 to 90
CNc1nc(Nc2ccc(C(=O)N3CCN(CCOCCOCCSC(C)(C)[C@H](NC(=O)C4(F)CC4)C(=O)N4C[C@H](O)C[C@H]4C(=O)N[C@@H](C)c4ccc(-c5scnc5C)cc4)CC3)cc2OC)ncc1Cl [XL01119, (2S,4R)-1-((R)-3-((2-(2-(2-(4-(4-((5-chloro-4-(methylamino)pyrimidin-2-yl)amino)-3-methoxybenzoyl)piperazin-1-yl)ethoxy)ethoxy)ethyl)thio)-2-(1-fluorocyclopropane-1-carboxamido)-3-methylbutanoyl)-4-hydroxy-N—((S)-1-(4-(4-methylthiazol-5-yl)phenyl)ethyl)pyrrolidine-2-carboxamide] | 20 to 100 | 10 to 100 | 0 to 40 | 0 to 60 | 10 to 95 | 30 to 100 | 0 to 70 | 0 to 90
CNc1nc(Nc2ccc(C(=O)N3CCN(Cc4ccc(CSC(C)(C)[C@H](NC(=O)C5(F)CC5)C(=O)N5C[C@H](O)C[C@H]5C(=O)N[C@@H](C)c5ccc(-c6scnc6C)cc5)cc4)CC3)cc2OC)ncc1Cl [XL01120, (2S,4R)-1-((R)-3-((4-((4-(4-((5-chloro-4-(methylamino)pyrimidin-2-yl)amino)-3-methoxybenzoyl)piperazin-1-yl)methyl)benzyl)thio)-2-(1-fluorocyclopropane-1-carboxamido)-3-methylbutanoyl)-4-hydroxy-N—((S)-1-(4-(4-methylthiazol-5-yl)phenyl)ethyl)pyrrolidine-2-carboxamide] | 20 to 100 | 10 to 100 | 0 to 40 | 0 to 60 | 10 to 95 | 30 to 100 | 0 to 70 | 0 to 90
CNc1nc(Nc2ccc(C(=O)N3CCN(Cc4ccc(CSC(C)(C)[C@H](NC(=O)C5(F)CC5)C(=O)N5C[C@H](O)C[C@H]5C(=O)NCc5ccc(-c6scnc6C)c(F)c5)cc4)CC3)cc2OC)ncc1Cl [XL01121, (2S,4R)-1-((R)-3-((4-((4-(4-((5-chloro-4-(methylamino)pyrimidin-2-yl)amino)-3-methoxybenzoyl)piperazin-1-yl)methyl)benzyl)thio)-2-(1-fluorocyclopropane-1-carboxamido)-3-methylbutanoyl)-N-(3-fluoro-4-(4-methylthiazol-5-yl)benzyl)-4-hydroxypyrrolidine-2-carboxamide] | 20 to 100 | 10 to 100 | 0 to 40 | 0 to 60 | 10 to 95 | 30 to 100 | 0 to 70 | 0 to 90
CNc1nc(Nc2ccc(C(=O)N3CCN(CCCSC(C)(C)[C@H](NC(=O)C4(F)CC4)C(=O)N4C[C@H](O)C[C@H]4C(=O)NCc4ccc(-c5scnc5C)c(F)c4)CC3)cc2OC)ncc1Cl [XL01122, (2S,4R)-1-((R)-3-((3-(4-(4-((5-chloro-4-(methylamino)pyrimidin-2-yl)amino)-3-methoxybenzoyl)piperazin-1-yl)propyl)thio)-2-(1-fluorocyclopropane-1-carboxamido)-3-methylbutanoyl)-N-(3-fluoro-4-(4-methylthiazol-5-yl)benzyl)-4-hydroxypyrrolidine-2-carboxamide] | 20 to 100 | 10 to 100 | 0 to 40 | 0 to 60 | 10 to 95 | 30 to 100 | 0 to 70 | 0 to 90
